This note sets out measurements from patent US20250346600A1, “TRICYCLIC DERIVATIVES AND RELATED USES” (MOMA Therapeutics, Inc., priority 2023, published 2025).

Where two headings read alike, the source gives them in different places. Bounds are passed on as bounds.

One assay has as its system HT29 cells. The assay can be described thus: HT29 (MSS) 7 day viability, CellTiter Glo. Type of assay: cell-based. The note with it: 7 days, read-out: HT29 (MSS) Viability 7 Day CTGAbs AC50. Put shortly: (§1)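 Seven-day viability is assessed with CellTiter Glo after compounds, diluted in ten 3-fold steps in DMSO, are exposed to HCT116 (50 cells/well) or HT29 (500 cells/well). Reported IC50 is the geometric mean of at least two independent runs.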
For orientation: ATP-based viability assays read luminescence as a measure of living cells.

Assay [1] deals with T1, Full length WRN protein (aa 2-1432) (Homo sapiens (Human), UniProt Q14191). The assay can be described thus: WRN ATPase ADP-Glo biochemical assay, Assay Format B (100 μM ATP). The note with it: 0.25 nM WRN, 100 nM C6.18 ssDNA, 60 min preincubation, read-out: ATPase ADPGlo AC50 (uM)- Assay Format B. Background: ADP-Glo first removes unused ATP, then detects ADP through luciferase.
T1 sequence (Q14191 2-1432): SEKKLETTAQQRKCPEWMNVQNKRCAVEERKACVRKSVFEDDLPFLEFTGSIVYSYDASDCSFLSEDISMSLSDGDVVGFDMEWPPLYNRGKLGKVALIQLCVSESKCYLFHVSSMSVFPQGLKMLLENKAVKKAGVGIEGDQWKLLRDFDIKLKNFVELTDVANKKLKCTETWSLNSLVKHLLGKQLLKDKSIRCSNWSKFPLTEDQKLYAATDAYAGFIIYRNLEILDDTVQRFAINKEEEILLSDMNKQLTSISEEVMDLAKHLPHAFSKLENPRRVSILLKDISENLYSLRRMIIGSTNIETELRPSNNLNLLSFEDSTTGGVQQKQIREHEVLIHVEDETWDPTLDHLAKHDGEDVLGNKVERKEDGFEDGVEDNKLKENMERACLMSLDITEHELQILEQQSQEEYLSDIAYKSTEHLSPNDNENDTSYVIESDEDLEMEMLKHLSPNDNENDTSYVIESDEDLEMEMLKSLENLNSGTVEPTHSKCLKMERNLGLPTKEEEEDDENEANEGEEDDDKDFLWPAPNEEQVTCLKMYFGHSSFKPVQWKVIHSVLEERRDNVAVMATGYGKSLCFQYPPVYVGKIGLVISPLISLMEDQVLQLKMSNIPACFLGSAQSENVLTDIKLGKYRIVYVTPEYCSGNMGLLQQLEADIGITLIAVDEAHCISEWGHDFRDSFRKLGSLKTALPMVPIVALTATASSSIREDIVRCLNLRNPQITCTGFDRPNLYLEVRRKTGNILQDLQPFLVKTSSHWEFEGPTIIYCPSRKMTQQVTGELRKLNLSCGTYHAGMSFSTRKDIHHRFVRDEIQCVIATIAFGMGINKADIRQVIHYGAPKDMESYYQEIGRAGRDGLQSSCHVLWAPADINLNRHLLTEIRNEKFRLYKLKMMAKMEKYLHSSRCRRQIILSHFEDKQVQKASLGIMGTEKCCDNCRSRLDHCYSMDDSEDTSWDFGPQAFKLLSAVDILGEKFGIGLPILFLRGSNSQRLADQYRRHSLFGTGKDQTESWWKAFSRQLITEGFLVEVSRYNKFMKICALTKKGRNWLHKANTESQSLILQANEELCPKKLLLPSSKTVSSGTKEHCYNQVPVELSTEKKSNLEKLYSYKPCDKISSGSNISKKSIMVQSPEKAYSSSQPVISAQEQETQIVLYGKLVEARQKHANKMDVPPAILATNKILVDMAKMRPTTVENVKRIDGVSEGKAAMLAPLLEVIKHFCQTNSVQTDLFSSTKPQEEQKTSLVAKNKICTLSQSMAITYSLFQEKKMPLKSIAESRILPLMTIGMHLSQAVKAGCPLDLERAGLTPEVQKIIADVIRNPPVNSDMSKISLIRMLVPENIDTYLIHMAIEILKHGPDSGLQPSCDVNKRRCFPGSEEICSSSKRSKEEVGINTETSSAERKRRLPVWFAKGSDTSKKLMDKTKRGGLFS

Assay [2] has as its target T1, Full length WRN protein (aa 2-1432). The assay can be described thus: WRN ATPase ADP-Glo biochemical assay, Assay Format A (10 μM ATP). The note with it: 0.25 nM WRN, 100 nM C6.18 ssDNA, 30 min preincubation, read-out: ATPase ADPGlo AC50 (uM)- Assay Format A. A digest of the protocol: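 Sf9-expressed FLAG-AVI-TEV-tagged WRN (0.5 nM) preincubated 30 min with compound (11-point 3-fold dilution). Reaction started with 200 nM C6.18 39-mer ssDNA and 20 μM ATP (addition concentrations), run 30 min at room temperature. ADP measured by ADP-Glo luminescence; IC50 from four-parameter fit, geometric mean of ≥2 runs.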

The next assay concerns HCT116 cells. As to the kind of experiment: HCT116 (MSI) 7 day viability, CellTiter Glo. It is filed as cell-based. Conditions: 7 days, read-out: HCT116 (MSI) Viability 7 Day Abs AC50. Put shortly:
as §1

Turning to `C=CC(=O)N1CCc2nn(-c3ccc(C4CC4)cc3O)c3c2C(C1)N(C(=O)c1cnc(C(F)(F)F)c(F)c1N)CC3` (centres unmarked) [Compound 194, 1-(5-(4-amino-5-fluoro-6-(trifluoromethyl)nicotinoyl)-2-(4-cyclopropyl-2-hydroxyphenyl)-2,3,4,5,5a,6,8,9-octahydro-7H-1,2,5,7-tetraazabenzo[cd]azulen-7-yl)prop-2-en-1-one], the AC50 in the assay on HT29 cells (Homo sapiens, HT-29, 168 h) is above 3000 nM; in assay [1], 0.005 to 0.015 µM; in assay [2] it was 0.0015 to 0.005 µM; in the assay on HCT116 cells (Homo sapiens, HCT-116, 168 h) it was 1 to 100 nM.
For `C=CC(=O)N1CC(C)c2nn(-c3ccc(C4CC4)cc3O)c3c2C(C1)N(C(=O)c1cnc(C(F)(F)F)cc1N)CC3` (centres unmarked) [Compound 195, 1-(5-(4-amino-6-(trifluoromethyl)nicotinoyl)-2-(4-cyclopropyl-2-hydroxyphenyl)-9-methyl-2,3,4,5,5a,6,8,9-octahydro-7H-1,2,5,7-tetraazabenzo[cd]azulen-7-yl)prop-2-en-1-one], the AC50 in the assay on HT29 cells is above 3000 nM; in assay [1], 0.005 to 0.015 µM; in assay [2] it was below 0.0015 µM; in the assay on HCT116 cells, 1 to 100 nM.
Consider `C=CC(=O)N1CCc2nn(-c3ccc(C4CC4)cc3O)c3c2C(C1)N(C(=O)c1cnc(Cl)cc1N)CC3` (centres unmarked) [Compound 196, 1-(5-(4-amino-6-chloronicotinoyl)-2-(4-cyclopropyl-2-hydroxyphenyl)-2,3,4,5,5a,6,8,9-octahydro-7H-1,2,5,7-tetraazabenzo[cd]azulen-7-yl)prop-2-en-1-one], for which the AC50 was above 3000 nM in the assay with HT29 cells (Homo sapiens, HT-29, 168 h); 0.005 to 0.015 µM in assay [1]; below 0.0015 µM in assay [2]; 1 to 100 nM in the assay on HCT116 cells (Homo sapiens, HCT-116, 168 h).
On the same counts, the results for `C=CC(=O)N1CC(OC2CC(C#N)C2)c2nn(-c3ccc(C4CCC4)cc3)c3c2C(C1)N(C(=O)c1cnc(C(F)(F)F)cc1N)CC3` (centres unmarked) [Compound 198, 3-((7-acryloyl-5-(4-amino-6-(trifluoromethyl)nicotinoyl)-2-(4-cyclobutylphenyl)-3,4,5,5a,6,7,8,9-octahydro-2H-1,2,5,7-tetraazabenzo[cd]azulen-9-yl)oxy)cyclobutane-1-carbonitrile] are above 3000 nM, 0.005 to 0.015 µM, below 0.0015 µM and 1 to 100 nM.
On the same counts, the results for `C=CC(=O)N1CCc2nn(-c3ccc(C4CC4)cc3O)c3c2C(C1)N(C(=O)c1ccc(Cl)nc1N)CC3` (centres unmarked) [Compound 199, 1-(5-(2-amino-6-chloronicotinoyl)-2-(4-cyclopropyl-2-hydroxyphenyl)-2,3,4,5,5a,6,8,9-octahydro-7H-1,2,5,7-tetraazabenzo[cd]azulen-7-yl)prop-2-en-1-one] are above 3000 nM, 0.005 to 0.015 µM, below 0.0015 µM and 1 to 100 nM.
The corresponding values for `C=CC(=O)N1CCc2nn(-c3ccc(C4CC4)cc3O)c3c2C(C1)N(C(=O)c1cc(F)c(C(F)(F)F)nc1N)CC3` (centres unmarked) [Compound 200, 1-(5-(2-amino-5-fluoro-6-(trifluoromethyl)nicotinoyl)-2-(4-cyclopropyl-2-hydroxyphenyl)-2,3,4,5,5a,6,8,9-octahydro-7H-1,2,5,7-tetraazabenzo[cd]azulen-7-yl)prop-2-en-1-one] are above 3000 nM, 0.015 to 0.055 µM, below 0.0015 µM and 1 to 100 nM.
On to `C=CC(=O)N1CCc2nn(Cc3ccccc3)c3c2C(C1)N(C(=O)c1cnc(C(F)(F)F)cc1N)CC3` (centres unmarked) [Compound 201, 1-(5-(4-amino-6-(trifluoromethyl)nicotinoyl)-2-benzyl-2,3,4,5,5a,6,8,9-octahydro-7H-1,2,5,7-tetraazabenzo[cd]azulen-7-yl)prop-2-en-1-one], for which the AC50 is above 3000 nM in the assay on HT29 cells (Homo sapiens, HT-29, 168 h); below 0.0015 µM in assay [1]; above 0.055 µM in assay [2]; above 1000 nM in the assay on HCT116 cells (Homo sapiens, HCT-116, 168 h).
The corresponding values for `C=CC(=O)N1CCc2nn(-c3ccc(C4CC4)cc3O)c3c2C(C1)N(C(=O)c1cnc(Br)c(F)c1N)CC3` (centres unmarked) [Compound 202, 1-(5-(4-amino-6-bromo-5-fluoronicotinoyl)-2-(4-cyclopropyl-2-hydroxyphenyl)-2,3,4,5,5a,6,8,9-octahydro-7H-1,2,5,7-tetraazabenzo[cd]azulen-7-yl)prop-2-en-1-one] are above 3000 nM, 0.0015 to 0.005 µM, 0.0015 to 0.005 µM and 1 to 100 nM.
For the compound `C=CC(=O)N1CCc2nn(-c3ccc(C4CC4)cc3O)c3c2C(C1)N(C(=O)c1cnc(C(C)(F)F)c(F)c1N)CC3` (centres unmarked) [Compound 206, 1-(5-(4-amino-6-(1,1-difluoroethyl)-5-fluoronicotinoyl)-2-(4-cyclopropyl-2-hydroxyphenyl)-2,3,4,5,5a,6,8,9-octahydro-7H-1,2,5,7-tetraazabenzo[cd]azulen-7-yl)prop-2-en-1-one], the AC50 in the assay on HT29 cells (Homo sapiens, HT-29, 168 h) is above 3000 nM; in assay [1] it was 0.0015 to 0.005 µM; in assay [2] it was 0.0015 to 0.005 µM; in the assay on HCT116 cells (Homo sapiens, HCT-116, 168 h), 1 to 100 nM.
As for `COC/C=C/C(=O)N1CCc2nn(-c3ccc(C4CCC4)cc3O)c3c2C(C1)N(C(=O)c1cnc(C(F)(F)F)cc1N)CC3` (centres unmarked) [Compound 239, 1-(5-(4-amino-6-(trifluoromethyl)nicotinoyl)-2-(4-cyclobutyl-2-hydroxyphenyl)-2,3,4,5,5a,6,8,9-octahydro-7H-1,2,5,7-tetraazabenzo[cd]azulen-7-yl)-4-methoxybut-2-en-1-one], the AC50 with HT29 cells (Homo sapiens, HT-29, 168 h) was above 3000 nM; in assay [1] it was above 0.055 µM; in assay [2], 0.005 to 0.015 µM; in the assay with HCT116 cells (Homo sapiens, HCT-116, 168 h), 100 to 250 nM.
On the same counts, the results for `C=CC(=O)N1CCc2nn(-c3ccc(C4CCC4)cc3C)c3c2C(C1)N(C(=O)c1cnc(C(F)(F)F)cc1N)CC3` (centres unmarked) [Compound 240, 1-(5-(4-amino-6-(trifluoromethyl)nicotinoyl)-2-(4-cyclobutyl-2-methylphenyl)-2,3,4,5,5a,6,8,9-octahydro-7H-1,2,5,7-tetraazabenzo[cd]azulen-7-yl)prop-2-en-1-one] are above 3000 nM, 0.0015 to 0.005 µM, below 0.0015 µM and 1 to 100 nM.
The corresponding values for `C=CC(=O)N1CCc2nn(-c3ccc(C4CCC4)cc3Cl)c3c2C(C1)N(C(=O)c1cnc(C(F)(F)F)cc1N)CC3` (centres unmarked) [Compound 241, 1-(5-(4-amino-6-(trifluoromethyl)nicotinoyl)-2-(2-chloro-4-cyclobutylphenyl)-2,3,4,5,5a,6,8,9-octahydro-7H-1,2,5,7-tetraazabenzo[cd]azulen-7-yl)prop-2-en-1-one] are above 3000 nM, 0.005 to 0.015 µM, below 0.0015 µM and 1 to 100 nM.
The corresponding values for `C=CC(=O)N1CCc2nn(-c3ccc(C4CCC4)cc3O)c3c2C(C1)N(C(=O)c1ccc(C(F)(F)F)c2ncncc12)CC3` (centres unmarked) [Compound 242, 1-(2-(4-cyclobutyl-2-hydroxyphenyl)-5-(8-(trifluoromethyl)quinazoline-5-carbonyl)-2,3,4,5,5a,6,8,9-octahydro-7H-1,2,5,7-tetraazabenzo[cd]azulen-7-yl)prop-2-en-1-one] are above 3000 nM, 0.015 to 0.055 µM, 0.0015 to 0.005 µM and 1 to 100 nM.
Regarding `Nc1cc(C(F)(F)F)ncc1C(=O)N1CCc2c3c(nn2-c2ccc(C4CCC4)cc2)CCN(C(=O)/C=C\Cl)CC31` (centres unmarked) [Compound 243, 1-(5-(4-amino-6-(trifluoromethyl)nicotinoyl)-2-(4-cyclobutylphenyl)-2,3,4,5,5a,6,8,9-octahydro-7H-1,2,5,7-tetraazabenzo[cd]azulen-7-yl)-3-chloroprop-2-en-1-one], the AC50 in the assay with HT29 cells (Homo sapiens, HT-29, 168 h) lay in the range of 1000 to 3000 nM; in assay [1] it was 0.015 to 0.055 µM; in assay [2] it was 0.0015 to 0.005 µM; in the assay on HCT116 cells (Homo sapiens, HCT-116, 168 h), 1 to 100 nM.
The corresponding values for `C=CC(=O)N1CCc2nn(-c3cc(F)c(C4CC4)c(F)c3O)c3c2C(C1)N(C(=O)c1cnc(C(F)(F)F)cc1N)CC3` (centres unmarked) [Compound 244, 1-(5-(4-amino-6-(trifluoromethyl)nicotinoyl)-2-(4-cyclopropyl-3,5-difluoro-2-hydroxyphenyl)-2,3,4,5,5a,6,8,9-octahydro-7H-1,2,5,7-tetraazabenzo[cd]azulen-7-yl)prop-2-en-1-one] are above 3000 nM, 0.015 to 0.055 µM, 0.0015 to 0.005 µM and 1 to 100 nM.
The corresponding values for `C=CC(=O)N1CCc2nn(-c3ccc(C4CC4)cc3O)c3c2C(C1)N(C(=O)c1ccc(C(F)(F)F)cc1N)CC3` (centres unmarked) [Compound 245, 1-(5-(2-amino-4-(trifluoromethyl)benzoyl)-2-(4-cyclopropyl-2-hydroxyphenyl)-2,3,4,5,5a,6,8,9-octahydro-7H-1,2,5,7-tetraazabenzo[cd]azulen-7-yl)prop-2-en-1-one] are above 3000 nM, 0.005 to 0.015 µM, below 0.0015 µM and 1 to 100 nM.
Regarding `C=CC(=O)N1CC(OC2CC3(COC3)C2)c2nn(-c3ccc(C4CCC4)cc3)c3c2C(C1)N(C(=O)c1cnc(C(F)(F)F)cc1N)CC3` (centres unmarked) [Compound 246], the AC50 in the assay with HT29 cells (Homo sapiens, HT-29, 168 h) is above 3000 nM; in assay [1] it was 0.005 to 0.015 µM; in assay [2] it was below 0.0015 µM; with HCT116 cells (Homo sapiens, HCT-116, 168 h) it was 1 to 100 nM.

As usually defined, the AC50 is the midpoint of the concentration-response curve, whichever way the signal moves.
